Laboratory results reported in patent publication EP1228058B1, “BENZOPYRANYL GUANIDINE DERIVATIVES, PROCESS FOR PREPARATION THEREOF, AND PHARMACEUTICAL COMPOSITIONS CONTAINING THEM” (Dongbu Hannong Chemical Co., Ltd., priority 1999, dated 2001).
Like-named read-outs stand apart in the source and are kept apart here.

Tests used:
Human LDL = assay: Inhibition of copper-induced LDL oxidation (MDA, TBA method); format: biochemical; details: CuSO4 10 uM, 18 hr
Description: Human LDL (sigma) was dissolved in distilled water at a concentration of 1 mg/ml. LDL was dialyzed against three changes of phosphate-buffered solution before oxidation to remove EDTA (ethylenediamine tetraacetate) at 4 °C for 18 hr. EDTA-free LDL (100 ug LDL protein/ml) was incubated in EDTA-free phosphate-buffered solution at 37 °C for 18 hr in the presence of CuSO4 (10 uM) under pretreatment with the test compounds or tochopherol of which final concentrations were 10^-9, 10^-7, and 10^-5 M. Blank was incubated without CuSO^., and vehicle was used as a solvent group. Oxidation was stopped at 4 °C by addition of EDTA (200 uM).
Copper (Cu^+2) facilitates the oxidation of LDL to produce malondialdehyde (MDA), thus the lipid peroxidation was determined by MDA quantification same as the above example 5 (1). The MDA quantification was estimated by reacting samples with 2-thiobarbituric acid (TBA) and measuring the absorbance at 530 nm. 1,1,3,3-Tetramethoxy propane (Sigma) was used as a standard agent, and calculated the quantity of MDA as nmol of MDA equivalents per mg protein. The inhibitory effect of the test compounds against the lipid peroxidation was evaluated by calculating MDA reduction rate of the test compounds compared with that of the control group.

A7r5 [1] = assay: Inhibition of A7r5 mediated LDL oxidation (MDA); format: cell-based, rat; details: Rattus norvegicus; for inhibition at 100 µM: 10^-4 M; for inhibition at 10 µM: 10^-5 M; for inhibition at 1 µM: 10^-6 M
Description: A7r5 (ATCC CRL-1444, smooth muscles, thoracic aorta, BDIX rat) cells were cultured in 24 well plates, using the medium of DMEM (Dulbecco's modified Eagle's Medium) supplemented with 10% heat-inactivated FBS (fetal bovine serum) and 1% antibiotics. Confluent A7r5 from plates were washed with phosphate-buffered solution, and DMEM with 10% FBS and 1% antibiotics was added in a total volume of 0.5 ml/well. Cells (2 x 10^5 cells/ml) were preincubated without and with either test compounds (10^-6 - 10^-4 M) or Tocopherol (10^-6 - 10^-4 M) at 37 °C for 30 min. Then, A7r5 alone or A7r5 plus H2O2 (10^-7 M) were exposed to LDL (100 ug/ml) for 24 hr.
The inhibitory effect of the test compounds against the lipid peroxidation was evaluated by calculating MDA reduction rate of the test compounds compared with that of the control group same as the above example 5 (2).

A7r5 [2] = assay: Inhibition of intracellular ROS induced by H2O2 (H2DCFDA) in A7r5; format: cell-based; details: Rattus norvegicus
Description: Measurement of intracellular ROS (Reactive Oxygen Species) was determined using H2DCFDA (2',7'-dichlorodihydrofluorescein diacetate, Molecular Probes, Eugene, OR, USA). H2DCFDA is a non-polar compound that readily diffused into cells, where it is hydrolyzed by intracellular esterase to polar derivative H2DCF (2',7'-dichlorodihydrofluorescein) which can not cross the cell membrane, and thereby trapped within the cell. H2DCF is low-fluorescent, but converted to high-fluorescent DCF (2',7'-dichlorofluorescein) by intracellular ROS. Therefore, the intracellular ROS formation can be determined from the amount of converted DCF. HUVEC (Human umbilical Vascular Endothelial Cells) or A7r5 (Rat thoracic aorta smooth muscle cells) were used. HUVEC were cultured in Kaighn's F12K medium supplemented with 10% heat-inactivated FBS, 0.1 mg/ml heparin sodium, 0.03-0.05 mg/ml ECGS (Endothelial cell growth supplement) and 1% antibiotics, and A7r5 were cultured in DMEM supplemented with 10% heat inactivated FBS and 1% antibiotics. To measure the intracellular ROS, HUVEC or A7r5 were preincubated for 30 min in the presence of test compounds (10^-7-10^-5 M). Thereafter, cells were stimulated with H2O2 (10^-6 and 10^-5 M for 20 min), and then incubated in the dark for 2 hr at 37 °C in 50 mM phosphate buffer (pH 7.4) containing 5 uM H2DCFDA. The quantity of DCF fluorescence (485 nm excitation, 530 nm emission) was measured using Fluorescence plate reader (FL600, Biotek Instruments).

[3] = A7r5 alone, LDL 100 ug/ml, 24 hr, read-out: % Inhibition LDL
[4] = A7r5 plus H2O2 (10^-7 M), read-out: % Inhibition LDL + H2O2 (10^-7M)

Structure (SMILES) | % Inhibition (Human LDL; 10^-5 M) | % Inhibition (Human LDL; 10^-7 M, 0.1 µM) | % Inhibition (Human LDL; 10^-9 M, 0.001 µM) | inhibition at 100 µM (A7r5 [1]; [3]) | inhibition at 100 µM (A7r5 [1]; [4]) | inhibition at 10 µM (A7r5 [1]; [3]) | inhibition at 10 µM (A7r5 [1]; [4]) | inhibition at 1 µM (A7r5 [1]; [3]) | inhibition at 1 µM (A7r5 [1]; [4]) | inhibition at 10 µM (A7r5 [2]; A7r5, Conc. 10^-5 M, read-out: Inhibition (%) H2O2 (10^-6M)) | inhibition at 1 µM (A7r5 [2]; A7r5, Conc. 10^-6 M) | inhibition at 0.1 µM (A7r5 [2]; A7r5, Conc. 10^-7 M, read-out: Inhibition (%) H2O2 (10^-6M))
COC(OC)[C@@]1(C)Oc2ccc(N)cc2[C@@H](NC(=NC#N)NCc2ccccc2)[C@@H]1O [Example 40, (2S, 3S, 4R)-N''-cyano-N-(6 - amino-3,4-dihydro-3-hydroxy-2-methyl-2-dimethoxymethyl-2H-benzopyran-4-yl)-N'-benzylguanidine] | 27.6% | 24.3% | 7.6% | 57.5% | 64.3% | 51.4% | 62.5% | 40.9% | 49.7% |  |  | 
COC(OC)[C@@]1(C)Oc2ccc([N+](=O)[O-])cc2[C@H](NC(=NC#N)NCc2ccccc2)[C@H]1O [Example 24, (2S, 3R, 4S)-N''-cyano-N-(6-nitro-3,4-dihydro-3-hydroxy-2-methyl-2-dimethoxymethyl-2H-benzopyran-4-yl)-N'-benzylguanidine] |  |  |  |  |  |  |  |  |  | 185% | 111% | 72%
